Assay results reported in publication PMC4497560 (Bioorganic & medicinal chemistry letters, 2014).

Key:
Type in all cases: biochemical
[1] = biological target: T1, lymphoid tyrosine phosphatase (LYP) (Homo sapiens, UniProt Q9Y2R2); experiment: LYP enzymatic activity assay, chelator fragments with and without zinc acetate; conditions: for Time dependence of LYP inhibition: incubation 0, 30, 60, 120 min; for Effect on LYP enzymatic activity alone: chelator alone, no added zinc; for Chelator concentration sufficient to restore LYP activity: two equiv
T1 sequence (Q9Y2R2 24-289 limits assumed): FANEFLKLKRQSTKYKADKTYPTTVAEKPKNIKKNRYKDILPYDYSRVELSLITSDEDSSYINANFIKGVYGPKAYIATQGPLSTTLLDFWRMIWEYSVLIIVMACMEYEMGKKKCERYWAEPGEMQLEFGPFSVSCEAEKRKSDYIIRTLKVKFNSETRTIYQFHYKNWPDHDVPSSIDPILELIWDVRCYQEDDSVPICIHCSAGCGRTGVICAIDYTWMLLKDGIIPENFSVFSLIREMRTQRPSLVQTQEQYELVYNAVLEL

PTP1B = experiment: Inhibition of PTP1B by compound 1h; conditions: Figure 6
CD45 = experiment: Inhibition of CD45 by compound 1h; conditions: Figure 6
YopH = system: YopH
[2] = in the presence of 40 μM zinc acetate

CC(=O)[O-].CC(=O)[O-].[Zn+2] [zinc acetate, reference compound]
Inhibition of LYP ([1]; 100 μM zinc(II) acetate, standard assay conditions): complete inhibition
LYP activity, % of the control ([1]; at 5 μM zinc acetate): 80%
LYP activity, % of the control [1, 2]: 20%

Oc1ccc2ccccc2c1O [Compound 1h, 1,2-dihydroxynaphthalene]
Time dependence of LYP inhibition [1]: time-dependent inhibitor
Selectivity for LYP over PTP1B (PTP1B): modest selectivity
Selectivity for LYP over CD45 (CD45): modest selectivity
Selectivity for LYP over YopH (YopH): modest selectivity

O=C1C=Cc2ccccc2C1=O [1,2-naphthoquinone, reference compound]
Time dependence of LYP inhibition [1]: time-dependent manner

O=C1C=C(O)C(=O)c2ccccc21 [Compound 5g, 2-hydroxy-1,4-naphthoquinone]
Inhibition of LYP in the presence of zinc ([1]; 5 μM zinc acetate, follow-up studies): consistent concentration-dependent inhibition
Inhibition of LYP at the initial time point ([1]; absence of zinc, 0 min incubation): essentially no inhibition
Combined effect with zinc on LYP inhibition ([1]; in the presence of zinc (Figure S2)): additive effect
Time dependence of LYP inhibition [1]: time- dependent inhibition

O=C(O)c1cccc(C(=O)O)n1 [Compound 8a, 2,6-pyridine dicarboxylic acid]
Effect on LYP enzymatic activity alone [1]: little effect
Chelator equivalents (relative to zinc) required to restore LYP activity [1, 2]: slightly more than two equiv
Rescue of LYP from zinc-mediated inhibition [1, 2]: capable of rescuing the enzyme from zinc-mediated inhibition

c1ccc(CNCc2ccccn2)nc1 [Compound 3g, di-(2-picolyl)-amine]
Effect on LYP enzymatic activity alone [1]: little effect
Rescue of LYP from zinc-mediated inhibition [1, 2]: capable of rescuing the enzyme from zinc-mediated inhibition
Chelator concentration sufficient to restore LYP activity [1, 2]: 80 µM

Oc1ccc(Cl)c2cccnc12 [Compound 12b, 5-chloro-8-quinolol]
Effect on LYP enzymatic activity alone [1]: little effect
Rescue of LYP from zinc-mediated inhibition [1, 2]: capable of rescuing the enzyme from zinc-mediated inhibition
Chelator concentration sufficient to restore LYP activity [1, 2]: 80 µM
